These results are taken from US8039670B2, “Analogs of alpha galactosyceramide and uses thereof” (Ludwig Institute for Cancer Research, priority 2005, dated 2011).

Data set [1] can be described thus: Viability of analog-pulsed DC co-cultured with iNKT cells (propidium iodide). It is filed as cell-based, human. The settings on record: human; at concentration of maximal DC maturation; read-out: DC still viable. As to the method: (§1) Different analogs of α-GalCer as indicated or LPS were added to co-cultures of human DC and iNKT cells. (A) Maturation of the DC was assessed after 40 h, gating on CD11c positive cells. Histograms indicate the CD83 and CD86 profiles of DC from different treatments; the percentages indicate the percentage of CD83hi mature DC and the numbers in parenthesis, the mean fluorescence intensity of the population contained within the labeled gate. DC and iNKT cells were co-cultured in the presence of different analogs of α-GalCer for 24 hours. Supernatants were analyzed using ELISA for the presence of (B) IL-12p40 released by the DC and (C) IFN-γ from the iNKT cells. All the compounds tested induced weaker but significant cytokine production than α-GalCer, with the exception of arabinitolceramide. (D) Titration of α-GalCer, OCH or threitolceramide on DCs and co-culture with iNKT cells induces DC maturation in vitro. Cells were co-cultured in the presence of the indicated concentration of analog and the percentages of DC with increased CD83/CD80 are shown. […] Viability of α-GalCer or analog-pulsed DC was assessed after 40 h co-culture in the presence of iNKT cells by flow cytometry. Cells were stained with propidium iodide and the percentage of live CD11c gated cells remaining in the culture are shown.
(§2) To compare the functions of high affinity α-GalCer, intermediate affinity threitolceramide with the known, low affinity analog OCH, the three compounds were titrated onto DC and used to present to iNKT cells. Maturation of DC and DC viability were examined after 48 h.

For data set [2], the target named is human CD1d (Homo sapiens, UniProt P15813). The settings on record: acyl and sphingosine chains in A′ and C′ pockets; cited from earlier work.
Sequence of human CD1d (P15813 20-301 limits assumed): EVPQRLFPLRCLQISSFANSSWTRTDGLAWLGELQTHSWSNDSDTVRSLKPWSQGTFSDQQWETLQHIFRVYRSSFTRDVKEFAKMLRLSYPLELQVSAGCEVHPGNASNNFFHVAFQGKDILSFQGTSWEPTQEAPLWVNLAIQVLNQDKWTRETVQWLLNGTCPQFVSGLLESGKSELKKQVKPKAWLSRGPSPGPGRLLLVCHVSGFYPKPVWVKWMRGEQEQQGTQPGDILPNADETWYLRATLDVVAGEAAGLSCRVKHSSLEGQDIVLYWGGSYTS
Sequence of human CD1d (P61769 21-119 partner): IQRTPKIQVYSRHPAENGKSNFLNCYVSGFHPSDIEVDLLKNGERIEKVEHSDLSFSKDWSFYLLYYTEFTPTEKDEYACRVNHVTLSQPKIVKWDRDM
The subject of data set [3] is NKT cells. The settings on record: cancer patients, after treatment; cited from earlier work.
Data set [4] deals with OVA-specific IgGs. The data set is described as follows: OVA-specific IgG in serum after co-administration with OVA (ELISA, FIG. 7B). Type of data set: in vivo, mice. The settings on record: 1 μg with 400 μg OVA, bled 11-14d. As to the method: (A) C57BL/6 or iNKT^−/− mice were injected i.v. with 1 μg of vehicle, α-GalCer, analog or 25 μg MPL. Twenty hours after injection splenocytes were stained with antibodies against B220 and CD86 and analyzed by flow cytometry. Maturation was assessed by the upregulation of CD86 at the cell surface, gating on B cells (B220^+). Mean fluorescence intensity for each histogram is indicated. […] Mice were bled 11-14d after administration and the serum tested by ELISA for antibodies. Briefly, ELISA plates were coated with 10 μg/ml OVA and then serial dilutions of sera added and incubated overnight at 4° C. before detecting with an HRP-conjugated sheep anti-mouse IgG.
Non-glycolipid analogs of α-GalCer stimulate B cell maturation in the presence of iNKT cells in vivo and subsequent antibody production. (A) C57BL/6 or iNKT^−/− mice were injected i.v. with 1 μg of vehicle, α-GalCer, analog or 25 μg MPL. Twenty hours after injection splenocytes were stained with antibodies against B220 and CD86 and analyzed by flow cytometry. Maturation was assessed by the upregulation of CD86 at the cell surface, gating on B cells (B220^+) (FIG. 7 A). Mean fluorescence intensity for each histogram is indicated. […] Mice were bled 11-14d after administration and the serum tested by ELISA for antibodies (FIG. 7 B).
For orientation: In an ELISA, binding on a coated surface is turned into a signal by an enzyme label.

Data set [5] relates to iNKT cell clone. Kind of data set: Cytokine release from iNKT cell clone stimulated with analog-pulsed C1R-human CD1d cells. Type of data set: cell-based. As to the method:
FIG. 9 Inositol-based α-GalCer derivatives are functional in vitro. Human monocyte-derived DC were pulsed with 150 ng of different inositol analogs and co-cultured with iNKT cells for 24 h. […] Numbers indicate the mean fluorescence intensity of the histogram gated on CD11c^+ cells. 6-Deoxy and 6-Sulfono-myo-inositolceramide induce significant (B) IL-12p40 and (C) IFN-γ production by DC and iNKT cells respectively in the supernatants of co-cultured DC and iNKT cells. […] Release of (D) IFN-g and (E) IL-4 from iNKT cells after 24 h in culture with C1R-human CD1d cells pulsed with α-GalCer, 6-Deoxy- or 6-Sulfono-myo-inositolceramide.
The three inositol compounds were titrated on C1R cells expressing human CD1d and used to stimulate an iNKT cell clone.

Data set [6] relates to DC. Kind of data set: Viability of analog-pulsed DC co-cultured with iNKT cells (propidium iodide). Type of data set: cell-based, human. The settings on record: at concentration of maximal DC maturation. Here is the method:
as §1, §2

The test system of data set [7] is IL-12 p70 protein. The data set is described as follows: Example F: IL-12 p70 in tail blood six hours after injection (ELISA). The settings on record: 1 μg or 10 μg. Type of data set: in vivo. Here is the method:
These experiments were performed to determine the effect of selected compounds of the invention in stimulating the production of IL-12 production in subject animals. The animals received 1 μg or 10 μg of threitol, glycerol or Gal-Cer. One group of animals also received 50 μg of MPL. Six hours following injection, tail blood samples were collected and the IL-12 p70 protein was determined using an ELISA all in accordance with standard procedures.

On to `CCCCCCCCCCCCCCCCCCCCCCCCCC(=O)N[C@@H](CO[C@H]1OC(CO)[C@H](O)C(O)C1O)[C@H](O)[C@H](O)CCCCCCCCCCCCCC` (stereo partly drawn) [α-GalCer, α galactosylceramide, reference compound], for which, in data set [1], the viability at 48 h, 0.8 ng/ml was 10%. The “shape complementarity (Sc)” value in data set [2] was 0.61. For the same compound, the “time until NKT cells in peripheral blood fell to undetectable levels” value in data set [3] was at most 24 h. The “OVA-specific IgGs” value in data set [4] is “induces significant OVA-specific IgGs”. For the same compound, in data set [5], the “concentration at which IFN-γ and IL-4 approach a plateau” value came to 200 ng/mL.

On to `CCCCCCCCCCCCCCCCCCCCCCCCCC(=O)N[C@@H](COC[C@H](O)[C@@H](O)CO)[C@H](O)[C@H](O)CCCCCCCCCCCCCC` [Compound 3, Threitol Ceramide], for which the “DC viability (propidium iodide negative) compared with α-GalCer” value in data set [6] was “significantly greater proportion of DC were propidium iodide negative”. In data set [7], the IL-12/p70 secretion entry is given as “Dose dependent increases in IL-12/p70 secretion”.
